Measured values reported in patent US12544375B2, “Small molecule therapeutic for parkinson's disease paired with a biomarker of therapeutic activity” (The Board of Trustees of the Leland Stanford Junior …, priority 2019, dated 2026).

How the values were obtained:
[1] = tested on: healthy-1 or PD-2 fibroblasts; assay: Peroxisome movement or distribution, EGFP-peroxisome live imaging; assay type: cell-based, human; settings: 10 μM for 30 hrs
Method: FIG. 8. Related to FIG. 2-4. Miro1 Reducer in Human Cell and Fly Models. (A) Fibroblasts from Healthy-1 and PD-2 were treated, lysed, and blotted as indicated. Band intensities are normalized to those of GAPDH from the same blots and compared to “Healthy-1, no treatment”. n=4 independent experiments. (B) Fibroblasts from PD-2 were treated and immunostained as indicated. The intensity was quantified for each cell across 264-320 cells from 3 independent experiments, compared to “no treatment”. (C) Fibroblasts were treated, immunoprecipitated (IPed) with anti-Miro1, and blotted as indicated. Similar results were observed twice. (D) Similar as in (C), fibroblasts were treated as indicated, and IPed with anti-Miro1. The GTPase activity of the IPed Miro1 protein was measured as described in Method. […] The MitoSox intensity was quantified for each cell across 106-161 cells from 3 coverslips. […] The TMRM intensity was measured for each cell across 48-60 cells from 3 independent experiments, and expressed as a fraction of the mean of “Healthy-1, no treatment”. […] The movement (the intensity of non-yellow) was quantified for each cell as described in (Tsai et al., 2014) across 22-31 cells from 3 transfections. […] (1) Left: The percentage of TH-positive iPSC-derived neurons out of total cells (Dapi-positive) is calculated after immunocytochemistry under 20× as described in FIG. 3. […]

Mitofusin (Marf) = assay: Flies fed compound, Mitofusin (Marf) Western blot; assay type: in vivo, fruit flies; settings: wild-type flies fed 250 μM for 7 days
Method: FIG. 2A-FIG. 2F. Miro1 Reducer Eliminates the Miro1 Defect in PD Fibroblasts. (FIG. 2A) Chemical properties of Miro1 Reducer. (FIG. 2B) Wild-type flies (w^1118) were fed with DMSO alone (0 μM Miro1 Reducer) or Miro1 Reducer in DMSO at 250 μM for 7 days, and lysed and blotted as indicated. The band intensities are normalized to those of Tubulin from the same blots. n=4. (FIG. 2C-FIG. 2E) Fibroblasts were treated, lysed, and blotted as indicated. (FIG. 2C) Band intensities are normalized to those of GAPDH from the same blots and compared to “Healthy-1, no treatment” except otherwise indicated. n=4. (FIG. 2D) Band intensities are normalized to those of ATP5β from the same blots and expressed as a percentage of the mean of “0 μM Miro1 Reducer with CCCP”. Mean±S.E.M is shown. n=3. (FIG. 2E) Band intensities are normalized to those of GAPDH from the same blots and compared to “Healthy-1, no CCCP, no MG132” except otherwise indicated. n=4. […] The Miro1 intensity is normalized to that of mito-dsRed from the same cell and quantified across 37-62 cells from 5 fields each transfection, 3 independent transfections. […]
We assessed the binding ability of 6,835,320 commercialized small molecules to one of the two atypical Rho GTPase domains of Miro1 (amino acids 411-592) (FIG. 6C) by a customized virtual screen using the artificial intelligence (AI) technology. […]

Miro1 mRNA = Miro1 mRNA expression by qPCR in fibroblasts; assay type: cell-based, human
Method: FIG. 8. Related to FIG. 2-4. Miro1 Reducer in Human Cell and Fly Models. (A) Fibroblasts from Healthy-1 and PD-2 were treated, lysed, and blotted as indicated. Band intensities are normalized to those of GAPDH from the same blots and compared to “Healthy-1, no treatment”. n=4 independent experiments. (B) Fibroblasts from PD-2 were treated and immunostained as indicated. The intensity was quantified for each cell across 264-320 cells from 3 independent experiments, compared to “no treatment”. (C) Fibroblasts were treated, immunoprecipitated (IPed) with anti-Miro1, and blotted as indicated. Similar results were observed twice. […] The GTPase activity of the IPed Miro1 protein was measured as described in Method. […] The MitoSox intensity was quantified for each cell across 106-161 cells from 3 coverslips. […] The TMRM intensity was measured for each cell across 48-60 cells from 3 independent experiments, and expressed as a fraction of the mean of “Healthy-1, no treatment”. […] The movement (the intensity of non-yellow) was quantified for each cell as described in (Tsai et al., 2014) across 22-31 cells from 3 transfections. […] (1) Left: The percentage of TH-positive iPSC-derived neurons out of total cells (Dapi-positive) is calculated after immunocytochemistry under 20× as described in FIG. 3. […]
PCR. […] Concentrations of total RNA were measured using a Nano Drop. […]

`O=C(Nc1ccc(Nc2cc(-n3ccnc3)ncn2)cc1)Nc1cccc(F)c1` [Miro1 Reducer] was tested, and the “peroxisome movement or distribution” value [1] was “did not affect”, the “effect on OMM GTPase Mitofusin (Marf)” value (Mitofusin (Marf)) was “did not significantly affect” and the “Miro1 mRNA expression (qPCR)” value (Miro1 mRNA) was “nor did it change Miro1 mRNA expression”.
